# According to PMC12297997, “Differential Emodepside Efficacy in Drug-Resistant and Drug-Susceptible Ancylostoma caninum Highlights Variability in Potassium Channel Activity” (Tropical Medicine and Infectious Disease, 2025):
# Like-named read-outs stand apart in the source and are kept apart here.
# How the values were obtained:
# [1] = system: Ancylostoma caninum L3, drug-susceptible (WMD) isolate; experiment: In vitro L3 larval survival assay, drug-susceptible WMD isolate; format: cell-based
# Protocol: (§1) The wild-type (WMD) and triple-anthelmintic-resistant (BCR) isolates of A. caninum used in this study have been previously described. […] Both isolates were maintained in beagles according to established protocols.
# (§2) Stock solutions of pyrantel, ivermectin, and emodepside were prepared in appropriate solvent mixtures of DMSO and BU buffer (50 mM Na2HPO4, 22 mM KH2PO4, 70 mM NaCl, pH 6.8). To account for solubility differences, pyrantel was prepared in 20% DMSO, ivermectin in 4% DMSO, and emodepside in 25% DMSO. Penitrem A was dissolved in 100% DMSO to make a 500 µM stock solution. A vehicle control solution was also prepared for each drug, containing the maximum DMSO concentration used in the stock solutions to ensure that solvent effects across treatments were adequately controlled.
# (§3) Infective A. caninum L3 were collected from coproculture at least 7 days post-culture using a modified Baermann method and stored in BU in a 50 mL culture flask at room temperature for up to four weeks prior to use. The survival assay to evaluate the response of A. caninum L3 to various anthelmintics was adapted from a previously established motility assessment study.
# (§4) Prior to use, L3 were surface sterilized by incubation in 1% (v/v) HCl for 30 min, followed by two washes with sterile BU buffer. The sterilized larvae were resuspended in BU to a concentration of 75 L3 per 90 µL. Larvae were transferred in aliquots of 90 µL to individual wells in a 96-well plate, and 10 µL of the appropriate drug or control solution was added to each well, bringing the final volume to 100 µL. Plates were incubated at room temperature in the dark for 24 h.
# (§5) Following incubation, survival was assessed by adding 50 microliters of 50° C water to each well immediately before counting. […] For each well, the total number of living and dead L3 were counted, and percent survival was calculated as below:(1) Survival (%)=[…]
# (§6) Microsoft Excel was used to normalize raw survival percentages to their respective controls and calculate standard deviation for each condition. Statistical analysis was performed using GraphPad Prism (ver. 10, GraphPad Software, La Jolla, CA, USA). Using the mean, standard deviation, and sample size calculated in Excel, multiple unpaired t-tests were performed to determine the individual variance in means between WMD and BCR.
# [2] = system: Ancylostoma caninum L3, triple-anthelmintic-resistant (BCR) isolate; experiment: In vitro L3 larval survival assay, triple-anthelmintic-resistant BCR isolate; format: cell-based; conditions: for Difference in mean survival between BCR and WMD: BCR versus WMD L3, across all tested concentrations (4–40 µg/mL), two-tailed unpaired t-test, p < 0.0001
# Protocol: as §1, §2, §3, §4, §5, §6
# [3] = cited from earlier work; for Corresponding Cmax: po
# MADR A. caninum = system: MADR A. caninum; design: method as in PMID 36520649; conditions: dogs infected with MADR A. caninum; cited from earlier work
# [4] = stated without reference; cited from earlier work
# [5] = system: Ancylostoma caninum L3, drug-susceptible (WMD) isolate; experiment: Emodepside + penitrem A survival assay (SLO-1 modulation), WMD isolate; format: cell-based; conditions: 0.25 µM penitrem A + emodepside 7.5 µg/mL, 24 h, mean ± SD
# Protocol: as §4, §5
# (§7) To further investigate the specific mechanism of emodepside action, the SLO-1 channel inhibitor penitrem A was co-incubated with emodepside. The concentration of emodepside was kept constant (7.5 µg/mL) while that of penitrem A was titrated from 1 µM to 0.05 µM. […] Survival was assessed as above.
# as §6, with “Statistical analysis was performed using GraphPad Prism (ver. 10, GraphPad Software, La Jolla, CA, USA).” left out
# [6] = system: Ancylostoma caninum L3, triple-anthelmintic-resistant (BCR) isolate; experiment: Emodepside + penitrem A survival assay (SLO-1 modulation), BCR isolate; format: cell-based; conditions: 0.25 µM penitrem A + emodepside 7.5 µg/mL, 24 h, mean ± SD
# Protocol: as §4, §5, §7
# as §6, with “Statistical analysis was performed using GraphPad Prism (ver. 10, GraphPad Software, La Jolla, CA, USA).” left out
compound,measurement,setting,value
"CN1CCCN=C1/C=C/c1cccs1 [Pyrantel, pyrantel pamoate]","Percent survival of L3, normalized to vehicle control","[1]; 100 µg/mL, 24 h, room temperature, dark, mean ± SD",43.9±13.7%
same,Mortality of L3,"[1]; 10–50 µg/mL, 24 h",almost no mortality
same,"Percent survival of L3, normalized to vehicle control","[2]; BCR L3, 100 µg/mL, 24 h, room temperature, dark, mean ± SD, difference to WMD not significant (p = 0.054)",59.2±10.4%
same,Mortality of L3,"[2]; BCR L3, 10–50 µg/mL, 24 h",almost no mortality
same,Cmax,"[3]; in vivo, 100 mg/kg",110 ng/mL
same,Corresponding Cmax,[3]; in vivo,110 ng/mL
emodepside,"Percent survival of L3, normalized to vehicle control","[1]; 7.5 µg/mL, 24 h, mean ± SD",13.1% ± 4.1
same,"Percent survival of L3, normalized to vehicle control","[1]; 30 µg/mL (maximum dose tested), 24 h, mean ± SD",3.4% ± 3.3
same,IC50 (nonlinear regression of percent survival vs log concentration),[1]; 24 h survival,2.81 µg/mL
same,Surviving L3,"[2]; BCR L3, 30 µg/mL (maximum dose tested), 24 h",none
same,IC50 (nonlinear regression of percent survival vs log concentration),"[2]; BCR L3, 24 h survival",1.77 µg/mL
same,Percent survival of L3,"[2]; BCR L3, starting at 7.5 µg/mL, 24 h",killed all BCR larvae
same,Difference in percent survival between WMD and BCR,"[2]; WMD versus BCR L3, 3 µg/mL (greatest difference)",21.8±4.4
same,Greater effectiveness than drugs from other classes in reducing fecal egg count,MADR A. caninum,at least 50%
same,Corresponding Cmax,[3]; in vivo,37 ng/mL
ivermectin,Normalized survival of L3,"[1]; low dose 4 µg/mL, 24 h, room temperature, dark, mean ± SD",14.9±9.7%
same,Normalized survival of L3,"[2]; BCR L3, low dose 4 µg/mL, 24 h, room temperature, dark, mean ± SD",54.2±11.4%
same,Difference in mean survival between BCR and WMD,[2],39.0 ± 3.0%
same,Difference in mean survival between BCR and WMD,[2]; listed as ivermectin,approximately 40%
same,Aqueous solubility,[4],< 10 µg/mL
same,Cmax,"[3]; typical therapeutic dose 150–200 mg/kg, single oral administration",38 to 46 ng/mL
penitrem A,Percent survival of L3 co-incubated with emodepside,[5],29.8% ± 11.5
same,Percent survival of L3 co-incubated with emodepside,[6],78.2% ± 13.8
